In US10350273B2, “Treatment of hormonal disorders of growth” (The United States of America, as represented by the …, priority 2014, dated 2019):
Entries after “also recorded” stand apart in the source; their conditions may differ. Numbered stars: 1 amine (or outer) side, 2 acyl side, 3 side chain; on linkers, the order of the positions; unused ones are H or OH. Square brackets hold non-standard residues; d marks the D form. Side chains are listed from the residue outwards. Ends that are not written are not given here. Peptide text beside a SMILES is read from it. * marks the point of attachment. Ethylenediamine = C(CN[*:2])N[*:1]; Hyp = O=C(O)[C@@H]1C[C@@H](O)CN1; Phg = N[C@H](C(=O)O)c1ccccc1; CO = O=C([*:1])[*:2]; Bn = c1ccc(C*)cc1

Key:
[1] = test system: X-LAG patients; assay: Clinical treatment of X-LAG patients; format: in vivo, human; conditions: for hormonal or growth control: X-LAG patients; for IGF-1 levels under treatment: octreotide 150 mcg sc t.i.d. together with cabergoline 0.5 mg/week, one patient
Source text: Among the nine patients who underwent primary surgical resection, three had immediate GH/PRL control and excessive growth was halted. For those patients in whom growth and GH secretion were not controlled by their initial surgery, the subsequent management was complex. […] Therefore, it can be concluded that the GH receptor antagonist pegvisomant represents a useful option for IGF-1 and growth control.
The patient was a person with no family history of growth disorders. […] […] the patient began to grow excessively in terms of length and weight, exceeding the 97th percentile of their growth charts […]. […] A random level of GHRH was raised, although no potential ectopic sources were identified. […] As chronic treatment with somatostatin analogs and dopamine agonists for 12 months had no effect on the patient's excessive growth and their pituitary lesion began impinging on the optic chiasm, the patient was referred for neurosurgical treatment.

[2] = test system: somatotroph cells; assay: GH secretion by primary pituitary tumor cell culture of an X-LAG patient; format: cell-based, human; conditions: 10^−13 M, overnight incubation, mean±SEM
[3] = test system: somatotroph cells; assay: as above; format: cell-based, human; conditions: for GH change compared to control wells: overnight incubation; for effect on GH secretion (in words): X-LAG pituitary tumor cell culture, dose range; for GH response on co-incubation with GHRH: co-incubation with GHRH 10^−10M
Experimental: (§1) A surgical sample of the human pituitary adenoma of the patient mentioned in example 11 in Dulbecco's modified Eagle's medium (DMEM) was dissociated mechanically and enzymatically as described by Jaquet et al. (Hormonal regulation of prolactin release by human prolactinoma cells cultured in serum-free conditions. Horm Res 22 153-163, 1985). A sample of the medium in the postoperative sample was retained before further preparation. A total of 50,000 tumor cells per well were plated in 24 well plates coated with extracellular matrix from bovine endothelial corneal cells required for cell adhesion. The cells were cultured in DMEM depleted of L-Valine (D-Valine-DMEM) to block fibroblast proliferation, supplemented with 10% fetal calf serum, penicillin (100 U/ml), streptomycin (100 μg/ml), and glutamine ([…]) at 37° C. in a water-saturated atmosphere containing 7% CO2. After 48 h, culture medium was changed to D-Valine DMEM containing 1% ITS (Insulin Transferin Selenium) and 1% fetal calf serum for another 48 h. Cells were incubated with drugs at a range of concentrations (10^−12-10^−7 mol/L) for 16 h (overnight). All the experiments were performed in triplicate. The medium was collected and stored frozen for GH and PRL measurements.
(§2) The somatostatin analogs (SSAs), octreotide and pasireotide were purchased from Novartis (Basel, Switzerland), Forskolin was obtained from Sigma-Aldrich (St. Quentin Fallavier, France), Cabergoline was obtained from Pfizer (Pharmacia & Upjohn Kalamazoo, USA), MK-0677 (ghrelin analog) was obtained from Europeptide, Argenteuil France, and MSP (ghrelin receptor-GHS-R inverse agonist) came from Polypeptide Laboratories (Strasbourg, France). The GHRH receptor antagonist, acetyl-(D-Arg^2)-GHRH(1-29) amide, and GnRH1-5 were obtained from Bachem, Europe.
(§3) GH secretion by the primary culture cells was quantified using the ALPHALISA® human growth hormone GH kit (Perkin Elmer USA). Prolactin levels were measured in culture medium using a commercial IRMA kit (PRL IRMA Kit-Beckman Coulter Immunotech, Marseille, France). Human GHRH concentrations in plasma were measured using an in-house double-antibody radio-immunoassay as described previously and using a standard solution of Stimu-GH 50 μg (Ferring) and the matrix was non-used culture medium (Girard et al.; Eur. J. Clin. Pharmacol., 32, 507-513, 1987).

[4] = test system: somatotroph cells; assay: Prolactin (PRL) secretion by primary pituitary tumor cell culture of an X-LAG patient; format: cell-based, human; conditions: for PRL change compared to control wells: overnight incubation, mean±SEM; for effect on prolactin secretion (in words): X-LAG pituitary tumor cell culture, dose range; for PRL response on co-incubation with GHRH: co-incubation with GHRH 10^−10M
Experimental: as §1, §2, §3

[5] = test system: cAMP production; assay: cAMP assay (HTRF-cAMP Femto Kit) in cells from the tumor; format: cell-based, human; conditions: 10^−6M, 3 h, 37° C.
Experimental: Following the pharmacological co-incubation studies described in Example 13 the response of the tumor cells in terms of cAMP production was assessed. The cells from tumor were seeded into 24-well plates (4×10^4 cells/well). After 24 h in culture, the cAMP concentration was determined using the HTRF-cAMP Femto Kit (CisBio International, Bagnols-sur-Cèze, France), as described previously Cuny et al. (Mol Cell Endocrinol 355, 106-113, 2012). According to the manufacturer's protocol, the cells were detached using trypsin, seeded onto 96-well plates in suspension, and incubated at 37° C. for 3 h in the presence of forskolin. The HTRF assay reagents were then added directly into the 96-well plates.

[6] = test system: pituitary; conditions: cited from earlier work
[7] = test system: sporadic X-LAG patient; assay: Dynamic pituitary hormone tests (TRH test, GnRH test) in the X-LAG patient; format: in vivo, human
Source text: Fluctuations in elevated GHRH levels also occurred, and these were partially but not completely in phase with alterations in GH. While the elevated prolactin levels varied by less than +7% from baseline throughout the study, changes in GH levels were more marked (−23.6% to +61.5%).

[8] = listed as acetyl-(D-Arg^2)-GHRH(1-29)
[9] = TRH 125 μg IV or GnRH 25 μg IV, 0, 15, 30 and 90 minutes

pegvisomant
control of IGF1 (and growth) ([1]; postoperative use in X-LAG patients): control of IGF1 in all five X-LAG patients; also recorded: control of IGF1 and excessive growth in three patients

acetyl-(D-Arg^2)-GHRH(1-29) amide (Ac-Y[dR]DAIFTNSYRKVLGQLSARKLLQDIMSR-NH2; SMILES CC[C@H](C)[C@H](NC(=O)[C@H](C)NC(=O)[C@H](CC(=O)O)NC(=O)[C@@H](CCCNC(=N)N)NC(=O)[C@H](Cc1ccc(O)cc1)NC(C)=O)C(=O)N[C@@H](Cc1ccccc1)C(=O)N[C@H](C(=O)N[C@@H](CC(N)=O)C(=O)N[C@@H](CO)C(=O)N[C@@H](Cc1ccc(O)cc1)C(=O)N[C@@H](CCCNC(=N)N)C(=O)N[C@@H](CCCCN)C(=O)N[C@H](C(=O)N[C@@H](CC(C)C)C(=O)NCC(=O)N[C@@H](CCC(N)=O)C(=O)N[C@@H](CC(C)C)C(=O)N[C@@H](CO)C(=O)N[C@@H](C)C(=O)N[C@@H](CCCNC(=N)N)C(=O)N[C@@H](CCCCN)C(=O)N[C@@H](CC(C)C)C(=O)N[C@@H](CC(C)C)C(=O)N[C@@H](CCC(N)=O)C(=O)N[C@@H](CC(=O)O)C(=O)N[C@H](C(=O)N[C@@H](CCSC)C(=O)N[C@@H](CO)C(=O)N[C@@H](CCCNC(=N)N)C(N)=O)[C@@H](C)CC)C(C)C)[C@@H](C)O) [acetyl-(D-Arg^2)-GHRH (1-29) amide]
GH change compared to control wells [2]: +18±0.8% | GH change compared to control wells ([3]; 10^−11M, mean±SEM): +13±1.9% | effect on GH secretion (in words) [3]: reduce basal and stimulated GH and prolactin secretion in a dose dependent manner | GH response on co-incubation with GHRH [3]: complete abolition | GH response on co-incubation with GHRH [3, 8]: abolished the stimulatory effect of GHRH itself | GH change compared to control wells ([3]; highest GHRH-receptor antagonist dose studied): approximately −34±1.9% | PRL change compared to control wells ([4]; 10^−8M): −73±0.1% | effect on prolactin secretion (in words) [4]: reduce basal and stimulated GH and prolactin secretion in a dose dependent manner | PRL response on co-incubation with GHRH [4]: complete abolition | PRL response on co-incubation with GHRH [4, 8]: abolished the stimulatory effect of GHRH itself

C=C[C@@]1(C)CC(=O)[C@]2(O)[C@@]3(C)[C@@H](O)CCC(C)(C)[C@@H]3[C@H](O)[C@H](OC(C)=O)[C@@]2(C)O1 [forskolin]
rise in cAMP production compared with controls [5]: +396±1.9%

CC(C)(N)C(=O)N[C@H](COCc1ccccc1)C(=O)N1CCC2(CC1)CN(S(C)(=O)=O)c1ccccc12 [MK-0677]
GH change compared to control wells ([3]; concentration not given, mean±SEM): +15±0.5% | effect on prolactin secretion (in words) [4]: no effect on prolactin secretion

C[C@@H](O)[C@@H]1NC(=O)[C@H](CCCCN)NC(=O)[C@@H](Cc2c[nH]c3ccccc23)NC(=O)[C@H](Cc2ccccc2)NC(=O)[C@@H](NC(=O)[C@H](N)Cc2ccccc2)CSSC[C@@H](C(=O)N[C@H](CO)[C@@H](C)O)NC1=O [octreotide]
hormonal or growth control [1]: did not lead to hormonal or growth control | IGF-1 levels under treatment [1]: remained consistently elevated | effect on GH secretion (in words) [3]: no inhibitory effect on GH or prolactin; also recorded: no inhibition in GH secretion | PRL change compared to control wells ([4]; 10^−9M): −26±0.03% | effect on prolactin secretion (in words) [4]: no inhibitory effect on GH or prolactin

GHRH: Human GHRH (hGHRH) peptide is comprised of 44 amino acid residues (YADAIFTNSYRKVLGQLSARKLLQDIMSRQQGESNQERGARARL)
GH change compared to control wells ([3]; 10^−10 M, mean±SEM): +41±0.4% | effect on GH secretion (in words) [3]: further stimulated | PRL change compared to control wells ([4]; 10^−8M): +11±0.4% | effect on prolactin secretion (in words) [4]: further stimulated

Tyr-Ala-Asp-Ala-Ile-Phe-Thr-Asn-Ser-Tyr-Arg-Lys-Val-Leu-Gly-Gln-Leu-Ser-Ala-Arg-Lys-Leu-Leu-Gln-Asp-Ile-Met-Ser-Arg-NH2 [GHRH(1-29)]
potency relative to native GHRH [6]: ≥ 50%

Ghrelin
effect on GH secretion (in words) [3]: minor stimulatory effect on GH secretion

NCCCC[C@@H]1NC(=O)[C@@H](Cc2c[nH]c3ccccc23)NC(=O)[C@H](c2ccccc2)NC(=O)[C@@H]2C[C@@H](OC(=O)NCCN)CN2C(=O)[C@H](Cc2ccccc2)NC(=O)[C@H](Cc2ccc(OCc3ccccc3)cc2)NC1=O [pasireotide] (cyclo([Hyp]([CO-Ethylenediamine])[Phg][dW]KY(Bn)F))
GH change compared to control wells ([3]; 10^−8M, mean±SEM): −18±0.6% | effect on GH secretion (in words) [3]: small inhibitory effect on GH secretion | effect on prolactin secretion (in words) [4]: no effect on prolactin secretion

CC(C)[C@@H]1NC(=O)[C@H](CCCCN)NC(=O)[C@@H](Cc2c[nH]c3ccccc23)NC(=O)[C@H](Cc2ccc(O)cc2)NC(=O)[C@@H](NC(=O)[C@H](N)Cc2ccc3ccccc3c2)CSSC[C@@H](C(=O)N[C@H](C(N)=O)[C@@H](C)O)NC1=O [lanreotide]
hormonal or growth control [1]: did not lead to hormonal or growth control

GnRH1-5: fragment of gonadotropin-releasing hormone, putative GPR101 agonist (QHWSY; ends and bridges not checked)
GH change compared to control wells ([3]; 10^−10 M, mean±SEM): +15±1.5% | effect on GH secretion (in words) [3]: little effect on GH | effect on prolactin secretion (in words) [4]: did not stimulate prolactin release

GnRH: gonadotropin-releasing hormone, 25 μg IV GnRH (HRF-AYERST) (QHWSYGLRPG; not fully specified (residue 1, C-terminus); UniProt P01148 24-33, looked up)
GH level after GnRH administration ([7]; 25 μg IV GnRH, baseline GH 212 ng/mL): 50 ng/mL | GH response (in words) [7, 9]: suppression of GH levels at 30 mins | GHRH level response (in words) [7, 9]: not markedly altered; also recorded: GHRH levels remained unaltered; also recorded: remained elevated throughout | prolactin response (in words) [7, 9]: prolactin rose mildly

C=CCN1C[C@H](C(=O)N(CCCN(C)C)C(=O)NCC)C[C@@H]2c3cccc4[nH]cc(c34)C[C@H]21 [cabergoline]
IGF-1 levels under treatment [1]: remained consistently elevated | GH change compared to control wells ([3]; 10^−8M, mean±SEM): −32±0.8% | PRL change compared to control wells ([4]; concentration not given): −15±0.04%
